Here are results for 6 compounds from doi:10.1101/2023.11.24.568596v1 (biorxiv, 2023).

Targets include DAPK1 (Homo sapiens, UniProt P53355); BRD4 (Homo sapiens, UniProt O60885); CaMK1d (Homo sapiens, UniProt Q8IU85); FLT1 (Homo sapiens, UniProt P17948); PCTAIRE1 (Homo sapiens, UniProt Q00536); PIM3 (Homo sapiens, UniProt Q86V86).
Holding throughout (details): binder
The target of the next assay is T1, NEK1 (Homo sapiens, UniProt Q96PY6).
T1 sequence (Q96PY6 1-1258): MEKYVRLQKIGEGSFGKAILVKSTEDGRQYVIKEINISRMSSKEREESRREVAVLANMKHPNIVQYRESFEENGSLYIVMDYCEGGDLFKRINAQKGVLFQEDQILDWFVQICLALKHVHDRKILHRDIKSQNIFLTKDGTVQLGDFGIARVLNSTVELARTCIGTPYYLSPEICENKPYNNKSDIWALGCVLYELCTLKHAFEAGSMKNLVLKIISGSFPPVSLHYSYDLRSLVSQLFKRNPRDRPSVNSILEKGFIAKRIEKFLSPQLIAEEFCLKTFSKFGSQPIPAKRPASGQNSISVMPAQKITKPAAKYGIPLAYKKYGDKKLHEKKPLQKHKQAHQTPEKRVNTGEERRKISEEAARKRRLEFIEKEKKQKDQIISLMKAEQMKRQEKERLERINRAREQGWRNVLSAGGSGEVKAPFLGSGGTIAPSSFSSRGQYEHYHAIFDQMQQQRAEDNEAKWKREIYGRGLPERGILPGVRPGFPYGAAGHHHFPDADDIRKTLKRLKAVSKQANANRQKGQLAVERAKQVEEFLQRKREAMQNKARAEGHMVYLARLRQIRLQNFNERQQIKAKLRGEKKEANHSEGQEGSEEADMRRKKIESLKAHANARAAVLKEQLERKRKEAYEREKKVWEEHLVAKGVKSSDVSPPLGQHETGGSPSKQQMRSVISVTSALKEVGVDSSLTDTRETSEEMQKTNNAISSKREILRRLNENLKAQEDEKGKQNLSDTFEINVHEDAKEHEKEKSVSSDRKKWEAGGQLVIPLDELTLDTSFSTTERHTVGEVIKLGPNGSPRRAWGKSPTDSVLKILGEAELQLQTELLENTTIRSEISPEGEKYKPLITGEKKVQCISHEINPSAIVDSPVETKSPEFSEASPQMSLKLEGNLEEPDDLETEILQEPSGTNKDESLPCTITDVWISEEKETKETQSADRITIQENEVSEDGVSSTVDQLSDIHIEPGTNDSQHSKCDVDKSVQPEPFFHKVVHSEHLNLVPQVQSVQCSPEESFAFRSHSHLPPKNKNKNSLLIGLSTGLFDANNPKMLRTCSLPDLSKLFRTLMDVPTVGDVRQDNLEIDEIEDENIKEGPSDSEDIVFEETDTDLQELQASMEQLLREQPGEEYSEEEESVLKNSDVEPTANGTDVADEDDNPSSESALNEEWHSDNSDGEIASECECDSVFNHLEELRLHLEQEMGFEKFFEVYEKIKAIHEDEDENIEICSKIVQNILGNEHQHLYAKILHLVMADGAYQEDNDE

The next assay deals with T2, DMPK1 (Homo sapiens, UniProt Q09013).
T2 sequence (Q09013 1-629): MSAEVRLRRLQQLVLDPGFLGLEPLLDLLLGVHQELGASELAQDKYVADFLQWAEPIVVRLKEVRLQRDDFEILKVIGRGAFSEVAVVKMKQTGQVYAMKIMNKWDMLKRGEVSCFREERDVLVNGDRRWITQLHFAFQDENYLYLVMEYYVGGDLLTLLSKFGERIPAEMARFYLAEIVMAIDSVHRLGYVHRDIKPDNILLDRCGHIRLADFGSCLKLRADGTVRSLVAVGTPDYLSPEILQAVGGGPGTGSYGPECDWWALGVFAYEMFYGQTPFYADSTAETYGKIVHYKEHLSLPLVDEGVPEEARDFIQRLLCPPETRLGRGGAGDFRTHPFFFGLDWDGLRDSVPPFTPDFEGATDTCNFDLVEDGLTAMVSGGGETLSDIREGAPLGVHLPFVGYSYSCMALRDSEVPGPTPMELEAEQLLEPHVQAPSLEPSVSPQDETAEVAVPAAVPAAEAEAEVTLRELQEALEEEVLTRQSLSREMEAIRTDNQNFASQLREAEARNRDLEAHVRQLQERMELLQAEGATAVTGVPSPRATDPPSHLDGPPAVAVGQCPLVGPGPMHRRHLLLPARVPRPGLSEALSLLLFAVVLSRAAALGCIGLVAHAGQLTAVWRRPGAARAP

Chain of PCTAIRE1 (Q00536 whole entry): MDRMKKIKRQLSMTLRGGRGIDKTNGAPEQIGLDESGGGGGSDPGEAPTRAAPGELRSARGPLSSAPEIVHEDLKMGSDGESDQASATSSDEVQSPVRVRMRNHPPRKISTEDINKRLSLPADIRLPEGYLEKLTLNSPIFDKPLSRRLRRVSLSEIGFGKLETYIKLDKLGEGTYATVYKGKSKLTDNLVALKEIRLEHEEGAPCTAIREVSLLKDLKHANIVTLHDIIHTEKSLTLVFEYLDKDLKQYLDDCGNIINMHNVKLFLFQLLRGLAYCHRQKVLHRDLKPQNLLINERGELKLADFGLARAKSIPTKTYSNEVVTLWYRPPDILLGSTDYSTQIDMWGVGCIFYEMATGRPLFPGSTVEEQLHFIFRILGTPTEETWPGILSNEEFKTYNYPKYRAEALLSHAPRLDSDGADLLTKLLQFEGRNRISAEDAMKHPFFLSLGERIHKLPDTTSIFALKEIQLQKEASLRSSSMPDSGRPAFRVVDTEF
Chain of FLT1 (P17948 whole entry): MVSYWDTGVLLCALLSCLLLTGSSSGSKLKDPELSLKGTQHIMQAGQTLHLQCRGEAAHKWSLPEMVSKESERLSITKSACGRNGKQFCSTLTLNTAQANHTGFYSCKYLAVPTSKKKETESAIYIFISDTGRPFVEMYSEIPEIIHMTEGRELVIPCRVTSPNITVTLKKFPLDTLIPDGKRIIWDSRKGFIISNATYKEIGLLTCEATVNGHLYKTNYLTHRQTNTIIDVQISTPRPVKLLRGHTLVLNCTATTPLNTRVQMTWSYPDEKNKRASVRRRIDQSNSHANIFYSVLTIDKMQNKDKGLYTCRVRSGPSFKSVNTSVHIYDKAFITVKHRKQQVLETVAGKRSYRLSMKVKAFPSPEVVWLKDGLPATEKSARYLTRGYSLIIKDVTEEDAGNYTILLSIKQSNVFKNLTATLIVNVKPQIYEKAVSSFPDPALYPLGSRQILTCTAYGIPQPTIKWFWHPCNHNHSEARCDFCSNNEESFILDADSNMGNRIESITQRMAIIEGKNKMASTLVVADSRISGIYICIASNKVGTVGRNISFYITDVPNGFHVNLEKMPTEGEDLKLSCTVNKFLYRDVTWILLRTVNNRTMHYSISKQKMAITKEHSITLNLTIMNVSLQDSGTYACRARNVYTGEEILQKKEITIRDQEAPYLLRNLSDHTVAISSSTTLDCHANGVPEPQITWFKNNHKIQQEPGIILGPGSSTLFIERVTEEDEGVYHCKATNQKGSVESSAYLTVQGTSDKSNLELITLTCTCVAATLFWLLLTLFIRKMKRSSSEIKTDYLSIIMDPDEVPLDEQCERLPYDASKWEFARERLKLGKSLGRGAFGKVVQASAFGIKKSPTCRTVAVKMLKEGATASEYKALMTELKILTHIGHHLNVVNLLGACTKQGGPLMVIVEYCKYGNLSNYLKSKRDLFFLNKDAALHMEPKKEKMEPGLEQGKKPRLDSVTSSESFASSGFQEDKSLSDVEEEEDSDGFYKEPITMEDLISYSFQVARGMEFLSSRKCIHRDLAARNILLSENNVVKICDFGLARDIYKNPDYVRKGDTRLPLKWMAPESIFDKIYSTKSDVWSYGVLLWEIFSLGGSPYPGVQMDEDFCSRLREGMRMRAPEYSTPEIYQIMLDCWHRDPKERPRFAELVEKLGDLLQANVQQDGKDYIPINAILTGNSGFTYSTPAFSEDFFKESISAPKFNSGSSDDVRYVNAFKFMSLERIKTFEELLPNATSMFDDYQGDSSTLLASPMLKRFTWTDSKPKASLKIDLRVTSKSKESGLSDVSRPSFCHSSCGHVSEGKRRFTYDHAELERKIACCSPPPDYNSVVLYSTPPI
Chain of DAPK1 (P53355 whole entry): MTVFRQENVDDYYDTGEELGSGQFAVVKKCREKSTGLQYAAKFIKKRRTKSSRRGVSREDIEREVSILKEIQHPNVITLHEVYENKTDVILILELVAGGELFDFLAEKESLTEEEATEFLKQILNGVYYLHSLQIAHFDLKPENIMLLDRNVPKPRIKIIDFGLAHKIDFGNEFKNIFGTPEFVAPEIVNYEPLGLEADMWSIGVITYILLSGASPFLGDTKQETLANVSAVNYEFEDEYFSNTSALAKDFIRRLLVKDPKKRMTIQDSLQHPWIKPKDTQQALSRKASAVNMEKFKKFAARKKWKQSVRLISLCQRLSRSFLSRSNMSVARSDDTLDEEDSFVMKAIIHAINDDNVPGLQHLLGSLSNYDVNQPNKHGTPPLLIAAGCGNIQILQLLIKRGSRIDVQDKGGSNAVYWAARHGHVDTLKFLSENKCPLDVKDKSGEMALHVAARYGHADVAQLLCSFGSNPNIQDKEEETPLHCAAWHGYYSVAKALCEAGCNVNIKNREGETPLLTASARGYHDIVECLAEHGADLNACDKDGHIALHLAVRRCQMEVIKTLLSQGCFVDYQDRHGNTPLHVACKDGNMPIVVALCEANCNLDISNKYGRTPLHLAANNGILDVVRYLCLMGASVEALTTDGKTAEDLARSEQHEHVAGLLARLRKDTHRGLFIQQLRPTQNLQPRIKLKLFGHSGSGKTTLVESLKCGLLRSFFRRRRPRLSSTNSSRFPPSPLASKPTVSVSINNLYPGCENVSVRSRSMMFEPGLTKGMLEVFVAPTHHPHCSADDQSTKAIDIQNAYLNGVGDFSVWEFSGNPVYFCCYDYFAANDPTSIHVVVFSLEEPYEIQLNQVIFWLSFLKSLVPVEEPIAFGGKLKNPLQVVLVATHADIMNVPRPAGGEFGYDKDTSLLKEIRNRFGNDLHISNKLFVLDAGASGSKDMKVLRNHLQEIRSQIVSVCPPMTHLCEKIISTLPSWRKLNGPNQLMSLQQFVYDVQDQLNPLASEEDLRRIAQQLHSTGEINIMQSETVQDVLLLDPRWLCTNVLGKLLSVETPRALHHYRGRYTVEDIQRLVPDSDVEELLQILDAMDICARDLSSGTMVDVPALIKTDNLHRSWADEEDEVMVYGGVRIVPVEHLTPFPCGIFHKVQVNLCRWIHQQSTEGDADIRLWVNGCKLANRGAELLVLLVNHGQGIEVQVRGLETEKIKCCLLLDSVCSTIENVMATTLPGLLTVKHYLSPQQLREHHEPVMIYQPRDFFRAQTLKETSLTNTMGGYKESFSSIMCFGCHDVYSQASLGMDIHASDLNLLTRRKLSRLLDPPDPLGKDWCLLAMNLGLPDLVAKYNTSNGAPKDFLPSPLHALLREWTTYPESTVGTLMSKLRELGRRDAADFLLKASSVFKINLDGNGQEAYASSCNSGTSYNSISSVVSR
Chain of CaMK1d (Q8IU85 whole entry): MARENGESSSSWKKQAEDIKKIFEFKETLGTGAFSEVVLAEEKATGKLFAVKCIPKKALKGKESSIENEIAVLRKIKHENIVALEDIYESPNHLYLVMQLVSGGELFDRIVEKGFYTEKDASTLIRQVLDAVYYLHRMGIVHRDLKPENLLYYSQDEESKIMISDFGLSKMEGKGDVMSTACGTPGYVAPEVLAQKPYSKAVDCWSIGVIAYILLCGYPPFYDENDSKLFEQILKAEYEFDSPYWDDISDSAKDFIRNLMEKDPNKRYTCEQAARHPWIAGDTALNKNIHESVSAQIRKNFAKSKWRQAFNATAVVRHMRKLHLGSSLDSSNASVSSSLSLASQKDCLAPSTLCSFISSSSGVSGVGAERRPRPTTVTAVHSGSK

For `Cc1cccc(-c2ccc(-c3cc4cnc(Nc5ccc(C)c(O)c5)nc4n(CCCCN)c3=O)c(Cl)c2)n1` [compound 32, 8-(4-Aminobutyl)-6-(2-chloro-4-(6-methylpyridin-2-yl)phenyl)-2-((3-hydroxy-4-methylphenyl)amino)pyrido[2,3-d]pyrimidin-7(8H)-one], the “ΔTm 32” value at NEK1 was -3.0 °C; at DAPK1 it was -0.9 °C; at BRD4 it was -2.7 °C; on DMPK1, -4.5 °C; at CaMK1d, 6.0 °C; on FLT1, 5.6 °C. The “ΔTm 32” value on PCTAIRE1 is 4.8 °C; at PIM3, 1.5 °C.
For `Cc1cccc(-c2ccc(-c3cc4cnc(Nc5ccc(O)cc5)nc4n(CCCCN)c3=O)c(Cl)c2)n1` [compound 31, 8-(4-Aminobutyl)-6-(2-chloro-4-(6-methylpyridin-2-yl)phenyl)-2-((4-hydroxyphenyl)amino) pyrido[2,3-d]pyrimidin-7(8H)-one], the “ΔTm 31” value on NEK1 is -3.3 °C; on DAPK1 it was -0.6 °C; on BRD4 it was -1.6 °C; at DMPK1, -2.0 °C; at CaMK1d, 5.6 °C; on FLT1, 5.6 °C. Also, the “ΔTm 31” value on PCTAIRE1 stood at 5.0 °C; on PIM3 it was 4.5 °C.
For `Cc1cccc(-c2ccc(-c3cc4cnc(Nc5cc(C(F)(F)F)ccc5C)nc4n(CCCCN)c3=O)c(Cl)c2)n1` [compound 28, 8-(4-Aminobutyl)-6-(2-chloro-4-(6-methylpyridin-2-yl)phenyl)-2-((2-methyl-5-(trifluoromethyl)phenyl)amino)pyrido[2,3-d]pyrimidin-7(8H)-one], the “ΔTm 28” value at NEK1 is 0.2 °C; on DAPK1 it was -0.7 °C; at BRD4, -3.7 °C; at DMPK1, -2.4 °C; on CaMK1d, 4.8 °C; on FLT1, 7.8 °C. Besides, the entries for the “ΔTm 28” value on PCTAIRE1 and on PIM3 were 1.1 °C and 0.5 °C, respectively.
Consider `Cc1cccc(-c2ccc(-c3cc4cnc(NCCCN5CCNCC5)nc4n(CCCCN)c3=O)c(Cl)c2)n1` [compound 29, 8-(4-Aminobutyl)-6-(2-chloro-4-(6-methylpyridin-2-yl)phenyl)-2-((3-(piperazin-1-yl)propyl)amino)pyrido[2,3-d]pyrimidin-7(8H)-one], for which the “ΔTm 29” value on NEK1 was 0.3 °C; at DAPK1 it was -0.9 °C; on BRD4 it was -2.2 °C; at DMPK1, -1.3 °C; on CaMK1d it was 3.7 °C; at FLT1, 3.9 °C. For the same compound, the “ΔTm 29” value at PCTAIRE1 came to 2.5 °C; at PIM3, 0.0 °C.
As for `Cc1cccc(-c2ccc(-c3cc4cnc(Nc5ccc(CCCO)cc5)nc4n(CCCCN)c3=O)c(Cl)c2)n1` [compound 30, 8-(4-Aminobutyl)-6-(2-chloro-4-(6-methylpyridin-2-yl)phenyl)-2-((4-(3-hydroxypropyl)phenyl)amino)pyrido[2,3-d]pyrimidin-7(8H)-one], the “ΔTm 30” value is -3.1 °C on NEK1; -0.7 °C at DAPK1; -2.4 °C at BRD4; -5.0 °C on DMPK1; 6.8 °C on CaMK1d; 4.3 °C on FLT1. Further, the “ΔTm 30” value at PCTAIRE1 was 5.0 °C; on PIM3, -0.8 °C.
Take `Cc1cccc(-c2ccc(-c3cc4cnc(NCCCN5CCCC5=O)nc4n(CCCCN)c3=O)c(Cl)c2)n1` [compound 27, MR30]: the “ΔTm MR30 (27)” value at NEK1 was -0.3 °C; at DAPK1 it was -1.2 °C; at BRD4, -3.9 °C; at DMPK1, -1.4 °C; at CaMK1d it was 2.4 °C; on FLT1 it was 2.4 °C. Also, the “ΔTm MR30 (27)” value on PCTAIRE1 is 2.9 °C; at PIM3, -2.7 °C.
